The record followed here is US5770573A, “CS-1 peptidomimetics, compositions and methods of using the same” (Cytel Corporation, priority 1995, dated 1998).

Square brackets hold non-standard residues; d marks the D form. Peptide text beside a SMILES is read from it. * marks the point of attachment. PhAc = O=C(Cc1ccccc1)*

One test relates to asthmatic sheep. The experiment in a line: Treatment of asthmatic sheep (Ascaris suum antigen). The format is in vivo. Conditions: 24 hours after challenge; pre-challenge about 20-23 BU. As for the experimental part:
Six asthmatic sheep were treated in a double blind cross-over study. […] This study was carried out generally as described in Abraham et al., J. Clin. Invest., 93:776-787 (1994).
The inhibitor compound used here was Compound ID No. 896.52, N-phenylacetyl-Leu-Asp-Phe-D-Pro-NH2, with a control compound that comprised the previously described compound having the same residues in a scrambled sequence. The vehicle for the nebulized compounds was phosphate-buffered saline. The compounds were administered at a dose of 1 mg/kg each, twice a day for three days prior to challenge, as well as 0.5 hours prior to and four hours post challenge on day 4. Because this was a crossover study, each animal received one or the other treatment, followed by a rest and then the other treatment. Each animal therefore served as its own control.
Post challenge airway responsiveness was also assayed. Here, specific lung resistance, SRL, returned to baseline values 24 hours after challenge, however, the sheep were hyperresponsive to inhaled carbachol at that time.

The target in a further test is VLA-4 (Homo sapiens, UniProt P05556+P13612). The experiment in a line: In vitro binding inhibition of 51Cr-labeled Jurkat cells to solid phase-bound CS-1 compound (SEQ ID NO:1). Also noted: inflammatory cells that contain the VLA-4 receptor [Jurkat cells; host or cells: Jurkat (human T lymphoblastic line). The format is cell-based. The method, boiled down:
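51Cr-labeled human Jurkat cells were preincubated with compound 30 min at about 22° C, then allowed to bind to wells coated with CS-1 peptide or CS-1-OVA for 30 min at 37° C. After washing, bound cells were lysed with SDS and counted. IC50 is the concentration halving binding, normalized to SEQ ID NO: 3.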

Chain of VLA-4 (P13612 34-1032): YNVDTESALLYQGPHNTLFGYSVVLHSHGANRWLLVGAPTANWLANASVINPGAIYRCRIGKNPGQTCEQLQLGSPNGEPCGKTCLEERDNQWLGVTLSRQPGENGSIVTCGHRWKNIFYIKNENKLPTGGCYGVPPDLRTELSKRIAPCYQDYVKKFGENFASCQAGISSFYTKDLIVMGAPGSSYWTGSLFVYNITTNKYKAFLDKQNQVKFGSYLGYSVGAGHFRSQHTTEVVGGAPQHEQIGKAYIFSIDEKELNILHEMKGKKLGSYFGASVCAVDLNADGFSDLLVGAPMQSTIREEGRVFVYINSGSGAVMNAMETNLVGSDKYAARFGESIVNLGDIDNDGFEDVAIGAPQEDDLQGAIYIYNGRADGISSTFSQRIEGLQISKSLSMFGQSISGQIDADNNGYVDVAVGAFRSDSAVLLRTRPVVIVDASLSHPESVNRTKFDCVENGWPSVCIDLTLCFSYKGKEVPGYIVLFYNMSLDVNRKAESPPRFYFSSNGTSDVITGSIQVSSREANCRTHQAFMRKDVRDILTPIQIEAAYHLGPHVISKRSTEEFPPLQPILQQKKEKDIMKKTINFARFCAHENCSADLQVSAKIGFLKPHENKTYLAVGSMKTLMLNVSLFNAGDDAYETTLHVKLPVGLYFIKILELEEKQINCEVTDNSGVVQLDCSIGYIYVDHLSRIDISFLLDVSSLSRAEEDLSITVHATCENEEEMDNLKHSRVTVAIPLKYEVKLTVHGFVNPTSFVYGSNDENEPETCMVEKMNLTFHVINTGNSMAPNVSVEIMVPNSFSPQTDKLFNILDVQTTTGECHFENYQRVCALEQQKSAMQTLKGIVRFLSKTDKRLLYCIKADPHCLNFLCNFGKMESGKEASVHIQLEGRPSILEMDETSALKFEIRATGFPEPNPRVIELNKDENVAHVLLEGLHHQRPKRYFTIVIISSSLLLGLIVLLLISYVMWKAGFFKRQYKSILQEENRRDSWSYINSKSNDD
Chain of VLA-4 (P05556 21-798): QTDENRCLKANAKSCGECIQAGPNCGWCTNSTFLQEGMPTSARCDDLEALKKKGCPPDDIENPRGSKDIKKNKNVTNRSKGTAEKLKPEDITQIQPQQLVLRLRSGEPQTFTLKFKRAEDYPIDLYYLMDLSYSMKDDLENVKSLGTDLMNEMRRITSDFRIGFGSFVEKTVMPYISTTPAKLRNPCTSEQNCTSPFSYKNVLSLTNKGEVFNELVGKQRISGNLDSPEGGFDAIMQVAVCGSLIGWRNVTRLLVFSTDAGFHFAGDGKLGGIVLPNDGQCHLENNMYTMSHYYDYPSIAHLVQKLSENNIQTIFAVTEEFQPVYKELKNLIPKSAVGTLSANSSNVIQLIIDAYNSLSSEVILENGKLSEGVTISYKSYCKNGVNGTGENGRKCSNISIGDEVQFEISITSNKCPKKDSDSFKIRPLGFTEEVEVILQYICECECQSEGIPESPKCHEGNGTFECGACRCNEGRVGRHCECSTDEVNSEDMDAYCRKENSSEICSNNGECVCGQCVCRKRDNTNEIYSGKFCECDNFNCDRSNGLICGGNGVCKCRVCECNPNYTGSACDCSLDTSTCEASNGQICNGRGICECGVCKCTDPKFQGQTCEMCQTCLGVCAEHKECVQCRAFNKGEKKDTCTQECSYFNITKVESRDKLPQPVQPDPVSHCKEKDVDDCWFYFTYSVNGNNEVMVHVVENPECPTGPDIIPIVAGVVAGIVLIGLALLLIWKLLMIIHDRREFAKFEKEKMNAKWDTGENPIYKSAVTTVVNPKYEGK

In the case of `CC(C)C[C@H](NC(=O)[C@H](CC(=O)O)NC(=O)Cc1ccccc1)C(=O)N[C@@H](Cc1ccccc1)C(=O)N1CCC[C@@H]1C(N)=O` [Compound ID No. 1066.02, N-phenylacetyl-Asp-Leu-Phe-D-Pro-NH2, reference compound] (PhAc-DLF[dP]-NH2), in the test with asthmatic sheep, the “PC400, carbachol dosage to increase SRL 4-fold” value is “about 12 BU”. The “Relative Potency” value on VLA-4 (binding inhibition potency relative to standard compound of SEQ ID NO:3 = 1 (normalized IC50), about one-tenth or less assigned zero) stood at 0. Besides, on VLA-4 (compared with standard 10-mer of SEQ ID NO:3), the “VLA-4 binding inhibition compared in words” value is on record as “no inhibition of VLA-4”.
